Values quoted from earlier work, collected in article PMC13050480, “Preclinical Development of GT-14, a Novel Inhibitor of Gαi2 Protein: Comprehensive Evaluation of Physicochemical, Metabolic Characteristics and Tissue Distribution” (The AAPS journal, 2025).

Legend:
α1-acid glycoprotein = test system: α1-acid glycoprotein; design: method as in PMID 27106175; settings: cited from earlier work
albumin = test system: albumin; design: method as in PMID 27106175; settings: cited from earlier work
[1] = cited from earlier work

Q: Which “protein-bound to α1-acid glycoprotein” value (α1-acid glycoprotein) does the source give for `C[C@]12CC[C@H](O)CC1=CC[C@@H]1[C@@H]2CC[C@]2(C)C(c3cccnc3)=CC[C@@H]12` [Abiraterone] here?
A: 89.4–95.6%

Q: What about the protein-bound to albumin (albumin) of the same compound?
A: 95.6–99.9%

Q: What about the “volume of distribution (Vd)” value [1] of the same compound?
A: ~ 5630 L

Q: Which results are given for `CC(O)(CS(=O)(=O)c1ccc(F)cc1)C(=O)Nc1ccc(C#N)c(C(F)(F)F)c1` (stereo not shown) [Bicalutamide]?
A: half-life [1]: 25 to 30 h; oral bioavailability [1]: high oral bioavailability; tissue distribution of [3H]-Bicalutamide [1]: preferential accumulation in the prostate, pituitary gland, and seminal vesicles, with limited brain penetration

Q: Which “apparent oral volume of distribution (Vd/F)” value [1] does the source give for `CNC(=O)c1ccc(N2C(=S)N(c3ccc(C#N)c(C(F)(F)F)c3)C(=O)C2(C)C)cc1F` [Enzalutamide] here?
A: around 110 L
